Legend:
Format in all cases: in vivo
common ragweed [1] = assay: Test Example 4: herbicidal effect in foliage treatment; conditions: dose 3.2 g/a, three weeks after the application
Source text: (§1) Test on the Herbicidal Effect in Foliage Treatment
(§2) Sterilized diluvial soil was put in plastic boxes with a length of 21 cm, a width of 13 cm and a depth of 7 cm, and seeds of barnyardgrass, large crabgrass, giant foxtail, wild oat, blackgrass, velvetleaf, common ragweed, redroot pigweed, common lambsquater, posumbu knotweed, common chickweed, corn, soybean, rice, wheat and sugar beet were sown in spots and covered with an about 1.5 cm-thick soil layer. The boxes were placed in a greenhouse at 25 to 30° C. to grow the plants. After 14 days, emulsifiable concentrates containing compounds of the present invention formulated in accordance with Formulation Example 2 were uniformly applied to the foliage at predetermined doses through a small sprayer after diluted with water. Three weeks after the application, the herbicidal effects against various plants were determined on the same evaluation scale as in Test Example 1.
(§3) A: barnyardgrass, B: bulrush, C: ducksalad, D: large crabgrass, E: giant foxtail, F: wild oat, G: water foxtail, H: Italian ryegrass, I: velvetleaf, J: common ragweed, K: redroot pigweed, L: common lambsquater, M: posumbu knotweed, N: common chickweed, O: beadstraw, a: transplanted rice, b: corn, c: soybean, d: direct-seeded rice, e: wheat, f: sugar beet.
(§4) The doses (g/a) represents the amounts in g per 1 are (a) applied after adjustment of concentration adjustment.

redroot pigweed [2] = assay: as above; conditions: dose 3.2 g/a, three weeks after the application
Source text: as §1, §2, §3, §4

posumbu knotweed [3] = assay: as above; conditions: dose 3.2 g/a, three weeks after the application
Source text: as §1, §2, §3, §4

large crabgrass [4] = assay: as above; conditions: dose 3.2 g/a, three weeks after the application
Source text: as §1, §2, §3, §4

Italian ryegrass [5] = assay: as above; conditions: dose 3.2 g/a, three weeks after the application
Source text: as §1, §2, §3, §4

water foxtail [6] = assay: as above; conditions: dose 3.2 g/a, three weeks after the application
Source text: as §1, §2, §3, §4

velvetleaf = assay: as above; conditions: dose 3.2 g/a, three weeks after the application
Source text: as §1, §2, §3, §4

barnyardgrass [7] = assay: as above; conditions: dose 3.2 g/a, three weeks after the application
Source text: as §1, §2, §3, §4

giant foxtail [8] = assay: as above; conditions: dose 3.2 g/a, three weeks after the application
Source text: as §1, §2, §3, §4

common chickweed [9] = assay: as above; conditions: dose 3.2 g/a, three weeks after the application
Source text: as §1, §2, §3, §4

common lambsquater [10] = assay: as above; conditions: dose 3.2 g/a, three weeks after the application
Source text: as §1, §2, §3, §4

transplanted rice = assay: Test Example 1: preemergence treatment under submerged conditions, effect on crop; conditions: dose 2.52 g/a
Source text: (§5) Test on the Herbicidal Effects in Preemergence Treatment on Weeds Under Submerged Conditions
(§6) Alluvial soil was put in 1/30000-are styrol cups and admixed with water so that it was submerged at a depth of 4 cm. In each cup, seeds of barnyardgrass, bulrush and ducksalad were sown together, and rice seedlings at the 2.5-leaf stage were transplanted. On the same day as the seeding, emulsifiable concentrates containing compounds of the present invention formulated in accordance with Formulation Example 2 were applied to the water surfaces at predetermined doses after diluted with water. The cups were placed in a greenhouse at 25 to 30° C. to grow the plants. Three weeks after the application, the herbicidal effects against various plants were determined on the following evaluation scale.
(§7) 5 mortality of 90% or above (nearly complete death)
(§8) 4 mortality of at least 70% and less than 90%
(§9) 3 mortality of at least 40% and less than 70%
(§10) 2 mortality of at least 20% and less than 40%
(§11) 1 mortality of at least 5% and less than 20%
(§12) 0 mortality of less than 5% (almost ineffective)
as §3, §4

common ragweed [11] = assay: Test Example 3: herbicidal effects in soil treatment; conditions: dose 3.2 g/a
Source text: (§13) Test on the Herbicidal Effects in Soil Treatment
as §2, with “chickweed” for “chickweed,”, “Emulsifiable” for “The boxes were placed in a greenhouse at 25 to 30° C. to grow the plants. After 14 days, emulsifiable”, “soil surfaces” for “foliage”, “dilute” for “diluted”
as §3, §4

redroot pigweed [12] = assay: as above; conditions: dose 3.2 g/a
Source text: as §13
as §2, with “chickweed” for “chickweed,”, “Emulsifiable” for “The boxes were placed in a greenhouse at 25 to 30° C. to grow the plants. After 14 days, emulsifiable”, “soil surfaces” for “foliage”, “dilute” for “diluted”
as §3, §4

posumbu knotweed [13] = assay: as above; conditions: dose 3.2 g/a
Source text: as §13
as §2, with “chickweed” for “chickweed,”, “Emulsifiable” for “The boxes were placed in a greenhouse at 25 to 30° C. to grow the plants. After 14 days, emulsifiable”, “soil surfaces” for “foliage”, “dilute” for “diluted”
as §3, §4

large crabgrass [14] = assay: as above; conditions: dose 3.2 g/a
Source text: as §13
as §2, with “chickweed” for “chickweed,”, “Emulsifiable” for “The boxes were placed in a greenhouse at 25 to 30° C. to grow the plants. After 14 days, emulsifiable”, “soil surfaces” for “foliage”, “dilute” for “diluted”
as §3, §4

Italian ryegrass [15] = assay: as above; conditions: dose 3.2 g/a
Source text: as §13
as §2, with “chickweed” for “chickweed,”, “Emulsifiable” for “The boxes were placed in a greenhouse at 25 to 30° C. to grow the plants. After 14 days, emulsifiable”, “soil surfaces” for “foliage”, “dilute” for “diluted”
as §3, §4

water foxtail [16] = assay: as above; conditions: dose 3.2 g/a
Source text: as §13
as §2, with “chickweed” for “chickweed,”, “Emulsifiable” for “The boxes were placed in a greenhouse at 25 to 30° C. to grow the plants. After 14 days, emulsifiable”, “soil surfaces” for “foliage”, “dilute” for “diluted”
as §3, §4

barnyardgrass [17] = assay: as above; conditions: dose 3.2 g/a
Source text: as §13
as §2, with “chickweed” for “chickweed,”, “Emulsifiable” for “The boxes were placed in a greenhouse at 25 to 30° C. to grow the plants. After 14 days, emulsifiable”, “soil surfaces” for “foliage”, “dilute” for “diluted”
as §3, §4

giant foxtail [18] = assay: as above; conditions: dose 3.2 g/a
Source text: as §13
as §2, with “chickweed” for “chickweed,”, “Emulsifiable” for “The boxes were placed in a greenhouse at 25 to 30° C. to grow the plants. After 14 days, emulsifiable”, “soil surfaces” for “foliage”, “dilute” for “diluted”
as §3, §4

common chickweed [19] = assay: as above; conditions: dose 3.2 g/a
Source text: as §13
as §2, with “chickweed” for “chickweed,”, “Emulsifiable” for “The boxes were placed in a greenhouse at 25 to 30° C. to grow the plants. After 14 days, emulsifiable”, “soil surfaces” for “foliage”, “dilute” for “diluted”
as §3, §4

common lambsquater [20] = assay: as above; conditions: dose 3.2 g/a
Source text: as §13
as §2, with “chickweed” for “chickweed,”, “Emulsifiable” for “The boxes were placed in a greenhouse at 25 to 30° C. to grow the plants. After 14 days, emulsifiable”, “soil surfaces” for “foliage”, “dilute” for “diluted”
as §3, §4

ducksalad [21] = assay: Test Example 1: herbicidal effects in preemergence treatment under submerged conditions; conditions: dose 2.52 g/a
Source text: as §5, §6, §7, §8, §9, §10, §11, §12, §3, §4

bulrush [22] = assay: as above; conditions: dose 2.52 g/a
Source text: as §5, §6, §7, §8, §9, §10, §11, §12, §3, §4

barnyardgrass [23] = assay: as above; conditions: dose 2.52 g/a
Source text: as §5, §6, §7, §8, §9, §10, §11, §12, §3, §4

ducksalad [24] = assay: Test Example 2: herbicidal effects during the vegetation period under submerged conditions; conditions: treatment during the vegetation period under submerged conditions; dose 2.52 g/a
Description: (§14) Test on the Herbicidal Effects on Weeds During the Vegetation Period Under Submerged Conditions
(§15) Alluvial soil was put in 1/30000-are styrol cups and admixed with water so that it was submerged at a depth of 4 cm. In each cup, seeds of barnyardgrass, bulrush and ducksalad were sown together, and the cups were placed in a greenhouse at 25 to 30° C. to grow the plants. When the barnyardgrass, bulrush and ducksalad reached the 1- or 2-leaf stage, emulsifiable concentrates containing compounds of the present invention formulated in accordance with Formulation Example 2 were applied to the water surfaces at predetermined doses after diluted with water. Three weeks after the application, the herbicidal effects against various plants were determined on the same evaluation scale as in Test Example 1.
as §3, §4

bulrush [25] = assay: as above; conditions: treatment during the vegetation period under submerged conditions; dose 2.52 g/a
Description: as §14, §15, §3, §4

barnyardgrass [26] = assay: as above; conditions: treatment during the vegetation period under submerged conditions; dose 2.52 g/a
Description: as §14, §15, §3, §4

CCOC(=O)N(c1ccccc1CN1COC(C)C(C)C1=O)S(=O)(=O)C(F)(F)F (stereo not shown) [II-71]
J: common ragweed, herbicidal effect (common ragweed [1]): 3 (mortality of at least 40% and less than 70%) | K: redroot pigweed, herbicidal effect (redroot pigweed [2]): 0 (mortality of less than 5% (almost ineffective)) | M: posumbu knotweed, herbicidal effect (posumbu knotweed [3]): 0 (mortality of less than 5% (almost ineffective)) | D: large crabgrass, herbicidal effect (large crabgrass [4]): 4 (mortality of at least 70% and less than 90%) | H: Italian ryegrass, herbicidal effect (Italian ryegrass [5]): 1 (mortality of at least 5% and less than 20%) | G: water foxtail, herbicidal effect (water foxtail [6]): 5 (mortality of 90% or above (nearly complete death)) | I: velvetleaf, herbicidal effect (velvetleaf): 5 (mortality of 90% or above (nearly complete death)) | A: barnyardgrass, herbicidal effect (barnyardgrass [7]): 5 (mortality of 90% or above (nearly complete death)) | E: giant foxtail, herbicidal effect (giant foxtail [8]): 4 (mortality of at least 70% and less than 90%) | N: common chickweed, herbicidal effect (common chickweed [9]): 4 (mortality of at least 70% and less than 90%) | L: common lambsquater, herbicidal effect (common lambsquater [10]): 0 (mortality of less than 5% (almost ineffective)) | a: transplanted rice, effect on crop (evaluation scale 0-5) (transplanted rice): 0 (mortality of less than 5% (almost ineffective)) | J: common ragweed, herbicidal effect (evaluation scale 0-5) (common ragweed [11]): 5 (mortality of 90% or above (nearly complete death)) | K: redroot pigweed, herbicidal effect (evaluation scale 0-5) (redroot pigweed [12]): 5 (mortality of 90% or above (nearly complete death)) | M: posumbu knotweed, herbicidal effect (evaluation scale 0-5) (posumbu knotweed [13]): 3 (mortality of at least 40% and less than 70%) | D: large crabgrass, herbicidal effect (evaluation scale 0-5) (large crabgrass [14]): 5 (mortality of 90% or above (nearly complete death)) | H: Italian ryegrass, herbicidal effect (evaluation scale 0-5) (Italian ryegrass [15]): 2 (mortality of at least 20% and less than 40%) | G: water foxtail, herbicidal effect (evaluation scale 0-5) (water foxtail [16]): 5 (mortality of 90% or above (nearly complete death)) | A: barnyardgrass, herbicidal effect (evaluation scale 0-5) (barnyardgrass [17]): 5 (mortality of 90% or above (nearly complete death)) | E: giant foxtail, herbicidal effect (evaluation scale 0-5) (giant foxtail [18]): 4 (mortality of at least 70% and less than 90%) | N: common chickweed, herbicidal effect (evaluation scale 0-5) (common chickweed [19]): 3 (mortality of at least 40% and less than 70%) | L: common lambsquater, herbicidal effect (evaluation scale 0-5) (common lambsquater [20]): 0 (mortality of less than 5% (almost ineffective)) | C: ducksalad, herbicidal effect (evaluation scale 0-5) (ducksalad [21]): 5 (mortality of 90% or above (nearly complete death)) | B: bulrush, herbicidal effect (evaluation scale 0-5) (bulrush [22]): 5 (mortality of 90% or above (nearly complete death)) | A: barnyardgrass, herbicidal effect (evaluation scale 0-5) (barnyardgrass [23]): 5 (mortality of 90% or above (nearly complete death)) | C: ducksalad, herbicidal effect (evaluation scale 0-5) (ducksalad [24]): 5 (mortality of 90% or above (nearly complete death)) | B: bulrush, herbicidal effect (evaluation scale 0-5) (bulrush [25]): 5 (mortality of 90% or above (nearly complete death)) | A: barnyardgrass, herbicidal effect (evaluation scale 0-5) (barnyardgrass [26]): 5 (mortality of 90% or above (nearly complete death))
